{"source": "patent US12590100B2", "about": "“Tetrahydro-spiroindoline-pyrrolopyrrole-triones inhibitors of the NRF2-β-TrCP interaction for use in the treatment of fatty liver disease” (Universidad Autonoma De Madrid, priority 2021, dated 2026)", "key": {"[1]": {"experiment": "Preliminary safety study, 4 weeks IP treatment in control and STZ-treated mice", "type": "in vivo, mouse", "protocol": "FIG. 10. […] A preliminary safety profile of PHAR treatment was assessed in […] control and streptozotocin (STZ) treated mice. These mice were subjected to a daily IP dose of […] of vehicle (VEH; Tween-80:PBS, 1:13), or PHAR for 5 days a week for 4 weeks. A) weight evolution during the weeks of treatment. (B-E) serum analysis of the levels of albumin (B), total protein (C) and liver transaminases, aspartate transaminase, AST (D), and alanine transaminase, ALT (E). The ranges of normal values are highlighted with a green dashed line. The number of individuals per group is reflected in the graphs.\nPreliminary safety studies have been performed in 7-week-old control and streptozotocin (STZ)-treated mice. These mice were subjected to an I.P treatment of 50 mg/kg of vehicle (Tween-80: PBS, 1:13) or PHAR for 4 weeks with 5 weekly doses. […] On the other hand, serum levels of albumin, total protein and two transaminases (AST and ALT) were analyzed."}, "[2]": {"system": "peritoneal macrophages (Nrf2-4KI)", "experiment": "Inflammatory response in LPS-stimulated peritoneal macrophages from Nrf2-4KI mice", "type": "cell-based, mouse", "conditions": "Nrf2-4KI peritoneal macrophages, PHAR 10 μM 8 h", "protocol": "FIG. 8. PHAR reduces inflammatory response in peritoneal macrophages originating from Nrf2^+/+ mice but not in peritoneal macrophages originating from LPS-stimulated Nrf2-4KI mice. Peritoneal macrophages originating from wild-type (WT) and serum-deprived NRF2 knock-in (Nrf2-4Ki) mice were pretreated with 10 μM of PHAR for 8 h. 0.1% DMSO was used as a vehicle. After that period of time, the cells were treated with 100 ng/ml of LPS for 4 h. A), representative immunoblots originating from both cell types of NRF2, HO1, pre-IL1β, COX2, NOS2, and GAPDH as a loading control. B), densitometric analysis of NRF2 and HO1 protein levels of the representative immunoblots of (A), expressed as a ratio of protein/GAPDH levels. The data is depicted as means±SEM (n=3). Statistical analysis was performed with two-way ANOVA followed by the Bonferroni test to compare inter-group differences. *p<0.05; **p<0.01; ***p<0.001 vs. LPS. C), Densitometric analysis of pre-IL1b, COX2, and NOS2 protein levels of the representative immunoblots of (A), expressed as a ratio of protein/GAPDH levels. The data is depicted as means±SEM (n=3). Statistical analysis was performed with two-way ANOVA followed by the Bonferroni test to compare inter-group differences. *p<0.05; **p<0.01; ***p<0.001 vs. LPS. D), the mRNA levels of Hmox1, Il1 β, Cox2, Nos2, Il6, and Tnfα were determined by means of qRT-PCR and normalized by means of average Gapdh, Thp, and β-actin. The data is depicted as mean±SEM (n=3). Statistical analysis was performed with two-way ANOVA followed by the Bonferroni test to check inter-group differences. *p<0.05; **p<0.01; ***p<0.001 vs. LPS.\nAs a complementary approach, peritoneal macrophages extracted from Nrf2^+/+ mice and knock-in mice generated in the laboratory having 4 serines substituted with alanines in critical positions for phosphorylation by priming kinase/priming kinases and by GSK-3β (Serines 335, 338, 342, and 347) were used. Both cell types were pretreated with DMSO or PHAR (10 μM, 8 h) and then stimulated with LPS (100 ng/ml, 4 h). […]"}, "[3]": {"system": "STAM mice (NAFLD)", "experiment": "STAM fatty liver model, treatment from steatosis stage (week 6)", "type": "in vivo, mouse", "protocol": "FIG. 12. PHAR decreases the inflammatory response in mice subjected to fatty liver in the STAM model. The STAM model is based on the induction of non-alcoholic fatty liver (NAFLD) generated by the subcutaneous injection of streptozotocin (STZ) in neonatal C57BL/6J mice (2-5 days old) followed by a high-fat diet administered from 4 weeks of age. In this case, we treated mice in the steatosis stage (week 6), 5 days a week with an IP administration of 50 mg/kg in order to analyze if PHAR prevents progression to the next stage (NASH). A), H&E staining of liver from PHAR-treated and untreated STAM mice. Histochemical lipid staining with oil red was used to visualize the amount of liver fat. B), normalized quantification of the amount of liver fat per mouse, measured by MRI, on the last day of treatment. C), representative MRI profiles of one mouse liver of each group. The peak that appears at an approximate frequency of 4.7 ppm corresponds to the water molecule (the majority), while the rest of the peaks give information on the amount of liver fat. The ratio of the sum of the fat peaks to water indicates the total liver fat content. D), mRNA levels of several genes involved in fatty acid metabolism (Cpt1a, Scd1, Cd36 and Fasn). E), the mRNA levels of the pro-inflammatory (Tnf, Il6 and Infg) and anti-inflammatory (Il10 and Il4) cytokines were determined by qRT-PCR and were normalized by the average of Gapdh, Tbp and β-actin. Statistical analysis was performed using a Student's t test to compare the differences between PHAR-treated mice vs vehicle-treated mice. *p<0.05; **p<0.01.\nAs previously described, the STAM model is a murine model used for the study of non-alcoholic fatty liver disease (NAFLD), as well as for the search of new effective treatments. This model is generated by the subcutaneous injection of streptozotocin (STZ) in 2-5 day old neonatal C57BL/6J mice followed by a high-fat diet, administered after 4 weeks of age. STZ produces a pancreatic lesion that leads to the appearance of hyperglycemia that, together with the high-fat diet, gradually leads to different stages of progressive liver damage: steatosis (week 6 post-STZ injection); Inflammatory NASH (week 8); NASH fibrosis (week 10) and, finally, hepatocarcinoma (week 16). The pathogenesis of NAFLD is closely related to the appearance of reactive oxygen species, chronic low-grade inflammation, and changes in lipid metabolism. For this reason, we determined whether PHAR, as an inducer of NRF2, could attenuate the inflammatory response. Specifically, we treated mice in the steatosis stage (week 6), 5 days a week with an IP administration of 50 mg/kg in order to analyze if it prevents progression to the next stage (NASH). […] Altogether, we conclude that PHAR slows down the accumulation of fat and, therefore, prevents the appearance of NASH."}, "[4]": {"conditions": "STAM mice from week 6, IP 50 mg/kg 5 days a week"}}, "note": "“Also recorded” adds a separate entry of the source."}
{"smiles": "O=C1[C@@H]2[C@H](Cc3c[nH]c4ccccc34)N[C@]3(C(=O)Nc4ccc(Cl)cc43)[C@@H]2C(=O)N1c1ccc2c(c1)OCCO2", "note": "[PHAR]", "values": [{"measurement": "body weight during treatment", "setting": "[1]; control and STZ-treated mice, I.P 50 mg/kg, 5 weekly doses, 4 weeks", "result": "did not lose weight"}, {"measurement": "serum albumin, total protein, AST and ALT", "setting": "[1]; control and STZ-treated mice, I.P 50 mg/kg, 5 weekly doses, after 4 weeks", "result": "values within normal ranges"}, {"measurement": "toxicity of chronic / prolonged administration", "setting": "[1]; mice, daily IP 5 days a week for 4 weeks", "result": "does not produce toxicity; also recorded: prolonged administration of PHAR is safe"}, {"measurement": "HO-1 induction", "setting": "[2]", "result": "the same HO-1 induction"}, {"measurement": "NRF2 induction", "setting": "[2]", "result": "considerably lower"}, {"measurement": "protective effect against the inflammatory response", "setting": "[2]; LPS 100 ng/ml 4 h", "result": "lost in almost all the inflammatory markers analyzed"}, {"measurement": "accumulated liver fat (oil red)", "setting": "[3]; [4]", "result": "significantly decreased the amount of accumulated liver fat"}, {"measurement": "liver fat quantity by MRI at the end of treatment", "setting": "[3]; [4]", "result": "slows the accumulation of liver fat"}, {"measurement": "expression of anti-inflammatory cytokines Il10 and Il4", "setting": "[3]; STAM mice from week 6, liver", "result": "to increase the anti-inflammatory cytokines"}, {"measurement": "expression of pro-inflammatory cytokines Tnf, Il6, Infg", "setting": "[3]; STAM mice from week 6, liver", "result": "tendency to decrease"}, {"measurement": "fatty acid synthesis, Fasn expression (mRNA)", "setting": "[3]; STAM mice from week 6, liver", "result": "decreasing of Fasn"}, {"measurement": "lipid catabolism, expression of Cpt1a (mRNA)", "setting": "[3]; STAM mice from week 6, liver", "result": "increase in lipid catabolism"}]}
